Data from patent EP0240391A1, “Silver salt derived from naphthyridine, useful as a bactericide, process for its preparation and compositions containing it” (EDMOND PHARMA S.R.L., priority 1986, dated 1987).

Assays:
[1] = Photosensitivity compared with other antibacterial silver salts; type: physicochemical; details: e.g. sel d'argent de la sulfadiazine, solid state and in solution
[2] = tested on: Trichophyton mentagrophytes; experiment: In vitro antifungal activity, MIC (CMI) by agar dilution method; type: cell-based; details: for nombre de souches sensibles aux concentrations suivantes (en µg/ml): 4 strains
Source text: (§1) Pour l'évaluation des activités antibactérienne et antifongique ont été testées 24 souches de bactéries et 11 de champignons isolées de matériel pathologique humain récent ou provenant de collections internationales, ainsi subdivisées :
(§2) Pour l'activité in vitro on a déterminé la CMI par la méthode des dilutions (milieu agar) selon la technique classique.
(§3) La solution mère des produits à tester (composé de formule I et acide libre de départ) a été préparée par dissolution dans le diméthylsulfoxyde et addition d'eau distillée dans le rapport 1 : 1O. Les solutions ultérieures ont été préparées par dilution avec de l'eau distillée ou avec le terrain minimum essential d'Eagle contenant 3 % de serum de veau.
(§4) Les concentrations ont été exprimées en µg de substance active, calculée comme acide libre, par ml de milieu.

[3] = tested on: Candida albicans; experiment: as above; type: cell-based; details: for nombre de souches sensibles aux concentrations suivantes (en µg/ml): 5 strains
Source text: as §1, §2, §3, §4

[4] = tested on: Trichophyton rubrum; experiment: as above; type: cell-based; details: for nombre de souches sensibles aux concentrations suivantes (en µg/ml): 2 strains
Source text: as §1, §2, §3, §4

[5] = tested on: Escherichia coli; experiment: In vitro antibacterial activity, MIC (CMI) by agar dilution method; type: cell-based; details: 5 strains
Source text: as §1, §2, §3, §4
(§5) Le tableau I montre l'activité antibactérienne in vitro du sel d'argent de formule I ci-dessus (Composé I) et de l'acide libre correspondant (Acide libre), exprimée par le nombre de souches sensibles aux produits testés à des concentrations de 3O à O,O1 µg/ml.

[6] = tested on: Streptococcus epidermidis; experiment: as above; type: cell-based; details: 3 strains
Source text: as §1, §2, §3, §4, §5

[7] = tested on: Staphylococcus aureus (pen. rés.); experiment: as above; type: cell-based; details: 2 penicillin-resistant strains
Source text: as §1, §2, §3, §4, §5

[8] = tested on: Pseudomonas aeruginosa; experiment: as above; type: cell-based; details: 4 strains
Source text: as §1, §2, §3, §4, §5

[9] = tested on: Staphylococcus aureus; experiment: as above; type: cell-based; details: 4 strains
Source text: as §1, §2, §3, §4, §5

[10] = tested on: Streptococcus faecalis; experiment: as above; type: cell-based; details: 2 strains
Source text: as §1, §2, §3, §4, §5

[11] = tested on: Streptococcus pyogenes; experiment: as above; type: cell-based; details: 4 strains
Source text: as §1, §2, §3, §4, §5

[12] = compared with the corresponding free acid; from European patent 49593; cited from earlier work

Question: Which results are given for “sel d'argent de l'acide 1-éthyl-6-fluoro-1,4-dihydro-4-oxo-7-(1-pipérazinyl)-1,8-naphtyridine-3-carboxylique [Composé I]”?
Answer: photosensibilité [1]: moins photosensible; nombre de souches sensibles aux concentrations suivantes (en µg/ml) ([2]; 3 µg/ml (as free acid)): 1; nombre de souches sensibles aux concentrations suivantes (en µg/ml) ([2]; 10 µg/ml (as free acid)): 2; nombre de souches sensibles aux concentrations suivantes (en µg/ml) ([2]; 30 µg/ml (as free acid)): 1; nombre de souches sensibles aux concentrations suivantes (en µg/ml) ([3]; 3 µg/ml (as free acid)): 1; nombre de souches sensibles aux concentrations suivantes (en µg/ml) ([3]; 10 µg/ml (as free acid)): 3; nombre de souches sensibles aux concentrations suivantes (en µg/ml) ([3]; 30 µg/ml (as free acid)): 1; nombre de souches sensibles aux concentrations suivantes (en µg/ml) ([4]; 10 µg/ml (as free acid)): 1; nombre de souches sensibles aux concentrations suivantes (en µg/ml) ([4]; 30 µg/ml (as free acid)): 1; Nombre de souches sensibles aux concentrations suivantes (µg/ml) ([5]; 0,1 µg/ml (as free acid)): 2; Nombre de souches sensibles aux concentrations suivantes (µg/ml) ([5]; 0,03 µg/ml (as free acid)): 1; Nombre de souches sensibles aux concentrations suivantes (µg/ml) ([5]; 0,3 µg/ml (as free acid)): 2; Nombre de souches sensibles aux concentrations suivantes (µg/ml) ([6]; 0,3 µg/ml (as free acid)): 1; Nombre de souches sensibles aux concentrations suivantes (µg/ml) ([6]; 1 µg/ml (as free acid)): 1; Nombre de souches sensibles aux concentrations suivantes (µg/ml) ([6]; 3 µg/ml (as free acid)): 1; Nombre de souches sensibles aux concentrations suivantes (µg/ml) ([7]; 0,1 µg/ml (as free acid)): 1; Nombre de souches sensibles aux concentrations suivantes (µg/ml) ([7]; 0,3 µg/ml (as free acid)): 1; Nombre de souches sensibles aux concentrations suivantes (µg/ml) ([8]; 0,1 µg/ml (as free acid)): 3; Nombre de souches sensibles aux concentrations suivantes (µg/ml) ([8]; 0,03 µg/ml (as free acid)): 1; Nombre de souches sensibles aux concentrations suivantes (µg/ml) ([9]; 0,1 µg/ml (as free acid)): 3; Nombre de souches sensibles aux concentrations suivantes (µg/ml) ([9]; 0,3 µg/ml (as free acid)): 1; Nombre de souches sensibles aux concentrations suivantes (µg/ml) ([10]; 1 µg/ml (as free acid)): 1; Nombre de souches sensibles aux concentrations suivantes (µg/ml) ([10]; 3 µg/ml (as free acid)): 1; Nombre de souches sensibles aux concentrations suivantes (µg/ml) ([11]; 1 µg/ml (as free acid)): 1; Nombre de souches sensibles aux concentrations suivantes (µg/ml) ([11]; 3 µg/ml (as free acid)): 2; Nombre de souches sensibles aux concentrations suivantes (µg/ml) ([11]; 10 µg/ml (as free acid)): 1

Question: With `CCn1cc(C(=O)O)c(=O)c2cc(F)c(N3CCNCC3)nc21` [Acide libre, acide 1-éthyl-6-fluoro-1,4-dihydro-4-oxo-7-(1-pipérazinyl)-1,8-naphtyridine-3-carboxylique, reference compound] as the compound, how does the MIC ([2]; Trichophyton mentagrophytes, same 4 strains as Table II, read-out: activité antifongique: inactif jusqu'à des concentrations de) read?
Answer: > 1 µg/mL

Question: And the MIC ([3]; Candida albicans, same 5 strains as Table II, read-out: activité antifongique: inactif jusqu'à des concentrations de)?
Answer: > 1 µg/mL

Question: And the MIC ([4]; Trichophyton rubrum, same 2 strains as Table II, read-out: activité antifongique: inactif jusqu'à des concentrations de)?
Answer: > 1 µg/mL

Question: And the “Nombre de souches sensibles aux concentrations suivantes (µg/ml)” value ([5]; 0,1 µg/ml (as free acid))?
Answer: 2

Question: And the “Nombre de souches sensibles aux concentrations suivantes (µg/ml)” value ([5]; 0,03 µg/ml (as free acid))?
Answer: 1

Question: What about the “Nombre de souches sensibles aux concentrations suivantes (µg/ml)” value ([5]; 0,3 µg/ml (as free acid)) of the same compound?
Answer: 2

Question: And the “Nombre de souches sensibles aux concentrations suivantes (µg/ml)” value ([6]; 3 µg/ml (as free acid))?
Answer: 2

Question: And the “Nombre de souches sensibles aux concentrations suivantes (µg/ml)” value ([6]; 10 µg/ml (as free acid))?
Answer: 1

Question: What about the “Nombre de souches sensibles aux concentrations suivantes (µg/ml)” value ([7]; 0,3 µg/ml (as free acid)) of the same compound?
Answer: 1

Question: And the “Nombre de souches sensibles aux concentrations suivantes (µg/ml)” value ([7]; 1 µg/ml (as free acid))?
Answer: 1

Question: What about the “Nombre de souches sensibles aux concentrations suivantes (µg/ml)” value ([8]; 0,3 µg/ml (as free acid)) of the same compound?
Answer: 3

Question: And the “Nombre de souches sensibles aux concentrations suivantes (µg/ml)” value ([8]; 1 µg/ml (as free acid))?
Answer: 1

Question: And the “Nombre de souches sensibles aux concentrations suivantes (µg/ml)” value ([9]; 0,1 µg/ml (as free acid))?
Answer: 1

Question: What about the “Nombre de souches sensibles aux concentrations suivantes (µg/ml)” value ([9]; 1 µg/ml (as free acid)) of the same compound?
Answer: 2

Question: And the “Nombre de souches sensibles aux concentrations suivantes (µg/ml)” value ([10]; 10 µg/ml (as free acid))?
Answer: 1

Question: What about the “Nombre de souches sensibles aux concentrations suivantes (µg/ml)” value ([10]; 30 µg/ml (as free acid)) of the same compound?
Answer: 1

Question: What about the “Nombre de souches sensibles aux concentrations suivantes (µg/ml)” value ([11]; 1 µg/ml (as free acid)) of the same compound?
Answer: 1

Question: And the “Nombre de souches sensibles aux concentrations suivantes (µg/ml)” value ([11]; 3 µg/ml (as free acid))?
Answer: 1

Question: And the “Nombre de souches sensibles aux concentrations suivantes (µg/ml)” value ([11]; 10 µg/ml (as free acid))?
Answer: 2

Question: With “sel d'argent de l'acide 1-éthyl-6-fluoro-1,4-dihydro-4-oxo-7-(1-pipérazinyl)-quinolinyl-3-carboxilique” as the compound, how does the “activité antibactérienne” value [12] read?
Answer: du même ordre que celle de l'acide libre correspondant
